{"source": "paper PMC9841533", "about": "“Microtubule-Stabilizing 1,2,4-Triazolo[1,5-a]pyrimidines as Candidate Therapeutics for Neurodegenerative Disease: Matched Molecular Pair Analyses and Computational Studies Reveal New Structure–Activity Insights” (Journal of Medicinal Chemistry, 2022)", "key": {"[1]": {"test_system": "AcTub levels in OA-treated primary mouse cortical neurons", "test": "Okadaic acid (OA) assay, AcTub ELISA in primary mouse cortical neurons", "type": "cell-based", "conditions": "OA 15 nM, 8 h, compound 1 and 10 μM", "protocol": "To further evaluate the activity of Class I alkyne derivatives and hybrid compounds, several compounds were also assessed for their ability to compensate for MT deficits in primary neuron cultures that were treated with the phosphatase inhibitor, okadaic acid (OA). As previously described,[11] treatment of rodent neurons with OA results in tau hyperphosphorylation and MT collapse that presumably results, at least in part, from tau disengagement from MTs. Co-treatment of neurons with Class I TPDs, such as 1, along with OA prevents this MT collapse, with a resulting normalization of MT structure and neuronal processes which can be observed upon visual inspection of the neurons or through an assessment of neuronal AcTub levels, while Class II TPDs are generally unable to provide meaningful compensation of MT deficits, especially when tested at higher (i.e., 10 μM) compound concentration.[11],[12]\nFigure 4 ELISA determination of AcTub levels in homogenates from primary rat cortical neurons treated with either vehicle, or OA (15 nM) in the presence of vehicle or TPD 1, 8, 9 (A); and primary mouse cortical neurons treated with vehicle, or OA (15 nM) in the presence of vehicle or TPD 1, 24, 45, 46, 53, 54 (B). Error bars represent SEM, with ***, p < 0.001 relative to vehicle treatment in the absence of OA as determined by one-way ANOVA.\nCompound-induced changes in acetylated-tubulin and α-tubulin in QBI293 cells or primary mouse or rat neurons were as previously described.[11],[12] For compound testing, QBI293 cells were plated at a density of 2 × 10^5 cells/well in 12-well plates. The plated cells were incubated overnight, after which the medium was aspirated and fresh medium containing vehicle (0.25–0.3% DMSO) or test compound was added. Test compounds were prepared as 4–20 mM stock solutions in 100% DMSO, and these were diluted in culture medium prior to addition to the QBI293 cells. After 4 h incubation, whole-cell extracts were prepared from the QBI293 cells as described[11] and the supernatant fraction from each sample was assessed for protein content by bicinchoninic acid (BCA) assay. The amount of acetyl-tubulin (AcTub) and α-tubulin (αTub) within the cell extract samples was quantified using specific enzyme-linked immunosorbent assays (ELISA), as previously described.[11] Acetyl-tubulin levels were determined in a similar manner in rat or mouse cortical neuron cultures in which embryonic dissociated cortical neurons were plated at 3 × 10^5 cells/well in poly-D-lysine-coated 12-well plates, essentially as previously described.[11] The neurons were allowed to grow for 10 days before they were treated for 8 h with 15 nM okadaic acid in the presence or absence of test compound prepared as described above, or vehicle (0.25% DMSO). Culture homogenates were prepared for the determination of AcTub levels by ELISA as previously described.[11]\nVehicleVehicleVehicleVehicle25 (1 µM)\nFigure S2. Assessment of AcTub levels in primary mouse cortical neurons treated with vehicle,\n(§1) (1 picture or pasted object on this page, not shown here)"}, "[2]": {"test": "Plasma pharmacokinetics in CD-1 mice", "type": "in vivo, mouse", "conditions": "i.v. 5 mg/kg", "protocol": "Studies to determine the pharmacokinetic properties of compounds 53 and 60 were conducted at Touchstone Biosciences (Plymouth Meeting, PA). For the determination of plasma pharmacokinetics, three male CD-1 mice (2–3 months of age) were injected i.v. (tail vein) with test compound at a dose of 5 mg/kg in a solution of 10% DMSO, 40% polyethylene glycol, and 50% water, and another three male CD-1 mice received oral gavage dosing of 60 formulated as above at a dose of 20 mg/kg. Blood samples were collected from the saphenous or submandibular veins at multiple time points after dosing and collected in Greiner MiniCollect K2EDTA tubes. Compound levels in plasma were determined by LC-MS/MS, using protocols similar to those previously described.[16],[22]"}, "[3]": {"test": "Resazurin cell viability assay, HeLa", "type": "cell-based", "conditions": "human, HeLa cells, three biological replicates, read-out: HeLa CC50 ± SD", "protocol": "Cell Culture. QBI293 and HeLa cells were cultured in DMEM supplemented with 10% heat-\ninactivated FBS and 1% penicillin-streptomycin. Cells were grown in T175 cell culture flasks maintained\nat 37 ℃ in 5% CO2 and sub-c ultured when at 60-8 0% cell confluence.\nResazurin Cell Viability Assay. Cytotoxicity in QBI293 and HeLa cells was measured using the\nresazurin cell viability assay.1 Test compounds were serially diluted in DMSO and added to 96-well\npolystyrene assay plates to give final assay concentrations ranging from 100 nM to 4000 nM (1 µL; 1%\ntotal DMSO). Fresh medium was added to the assay plate (49 µL/well). QBI293 or HeLa cells were\ncells/well. Assay plates were incubated at 37 °C and 5% CO2 for 48 h, followed by addition of 20 µL 0.5\nmM resazurin (Alfa Aesar, Cat. B21187) in PBS to each well. Assay plates were incubated in the dark for\nas §1\n4 h at 37 °C. Fluorescence was measured at 531 nm and 595 nm excitation and emission wavelengths,\nrespectively, using a 2104 EnVision® multilabel plate reader. The viability of each well was normalized to\npositive and negative controls in each assay plate. Dose-response curves were generated and CC50 values\ncalculated with GraphPad Prism, version 9.3 (San Diego, CA) using a sigmoidal four parameter logistic\ncurve. The means ± standard deviations from three biological replicates are shown.\n(1) O'Brien, J.; Wilson, I.; Orton, T.; Pognan, F. Investigation of the Alamar Blue (resazurin) fluorescent\ndye for the assessment of mammalian cell cytotoxicity. Eur. J. Biochem. 2000, 267 (17), 5421-5426."}}}
{"compound": "C[C@@H](Nc1c(-c2c(F)cc(C#CCCO)cc2F)c(Cl)nc2ncnn12)C(C)(C)C", "note": "[Compound 53, (R)-4-(4-(5-Chloro-7-((3,3-dimethylbutan-2-yl)amino)-[1,2,4]triazolo[1,5-a]pyrimidin-6-yl)-3,5-difluorophenyl)but-3-yn-1-ol]", "values": [{"measurement": "prevention/correction of OA-induced MT collapse (AcTub levels)", "setting": "[1]", "result": "can prevent the OA-induced MT collapse"}, {"measurement": "half-life (T1/2)", "setting": "[2]", "result": "relatively prolonged half-life"}, {"measurement": "CC50 at 48 h", "setting": "[3]", "result": "30.8 ± 4.7", "unit": "nM"}]}
